The test concerns the target ErbB2 (Homo sapiens, UniProt P04626). Description: ErbB kinase ELISA on poly-Glu-Tyr 4:1 coated microtiter plates. The format is biochemical. To be noted: PGT substrate, ATP, baculovirus ErbB2, 30 minutes at room temperature, optical density at 450 nm. On the procedure: The extent to which the compounds of the present invention modulate ErbB kinase activity can be determined using the following enzyme-linked immunosorbent assay (ELISA), which employs a microtiter plate coated with a protein tyrosine kinase specific polymer substrate. The phosphorylation reaction is performed on poly-Glu-Tyr 4:1 (PGT) coated microtiter plates in the presence on Mg^++, ATP and EGFR. The phosphorylated polymer substrate is detected with a phosphotyrosine specific monoclonal antibody conjugated to horseradish peroxidase (HRP). Chromogenic substrate (TMB) color is quantitiated by spectrophotometry.
The assay is performed in a 96-well microtiter plate (Immunlon 4, available from Dynex). To prepare the plate, 100 μL of 0.25 mg/mL Poly (Glu,Tyr) 4:1 Sodium Salt (available from Sigma, Catalog Number P0275) in phosphate buffered saline (PBS) is added to each well and the plates are sealed. Following incubation overnight at ambient temperature, this coating solution is removed and the plates are washed three times with 300 μL of 0.1% Tween 20 (available from Sigma, Catalog Number P2287) in PBS. If not using immediately, the coated microtiter plates may be stored at 2-8° C. with 150 μL of 0.1% Tween 20 in PBS in each well.
The compound to be tested is dissolved in DMSO at an initial concentration of 1.0 mM. This initial concentration is diluted 1:25 in DMSO, and the resulting solution is further serially diluted 1:5 eight times in DMSO. To 10 μL of the initial concentration and each dilution are added 240 μL Reaction Buffer (50 mM HEPES, 125 mM NaCl, 24 mM MgCl2, 0.1 mM Na3VO4 (boiled at pH 10 until colorless—approximately 10 minutes—and cooled prior to use), pH 7.3, filtered through a 0.2 micron filter). 25 μL of each compound solution (4% DMSO in Reaction Buffer for control) is placed in a separate microtiter plate well, along with 50 μL Reaction Buffer +ATP (15 μL 10 of mM ATP added to 5 mL Reaction Buffer) and 25 μL Reaction Buffer into which a catalytic amount of baculovirus ErbB2 has been added. The plate is then covered and incubated for 30 minutes at room temperature, after which time all liquid is aspirated from each well. The plate is washed three times with 300 μL of 0.1% Tween in PBS. Residual wash solution is removed by inverting the plate and blotting on a paper towel.
To each well is then added 100 μL of PBS containing 3% bovine serum albumin (protease-free, IgG-free, Jackson Catalog Number 001-000-162), 0.05% Tween 20 and 0.2 μg/mL anti-phosphotyrosine horseradisn peroxidase (available from Zymed, Laboratories, Inc., Catalog Number 03-7720). The plate is covered and incubated for 30 minutes at room temperature, after which time all liquid is aspirated from each well. The plate is washed three times with 300 μL of 0.1% Tween in PBS. Residual wash solution is removed by inverting the plate and blotting on a paper towel. To each well is then added 100 μL of TMB peroxidase substrate system (KPL Catalog Number 50-76-00), and the plate is allowed to incubate for 25 minutes at room temperature, at which time the reaction is stopped by the addition of 100 μL of 1M phosphoric acid to each well. The plate is tapped gently to ensure mixing.
Within about thirty minutes after the reaction is stopped, the optical density at 450 nm of each well is determined using a microtiter plate reader. A dose response curve is generated by plotting optical density versus compound concentration. IC50 is calculated from this curve using methods known in the art.

ErbB2, sequence (P04626 23-1255): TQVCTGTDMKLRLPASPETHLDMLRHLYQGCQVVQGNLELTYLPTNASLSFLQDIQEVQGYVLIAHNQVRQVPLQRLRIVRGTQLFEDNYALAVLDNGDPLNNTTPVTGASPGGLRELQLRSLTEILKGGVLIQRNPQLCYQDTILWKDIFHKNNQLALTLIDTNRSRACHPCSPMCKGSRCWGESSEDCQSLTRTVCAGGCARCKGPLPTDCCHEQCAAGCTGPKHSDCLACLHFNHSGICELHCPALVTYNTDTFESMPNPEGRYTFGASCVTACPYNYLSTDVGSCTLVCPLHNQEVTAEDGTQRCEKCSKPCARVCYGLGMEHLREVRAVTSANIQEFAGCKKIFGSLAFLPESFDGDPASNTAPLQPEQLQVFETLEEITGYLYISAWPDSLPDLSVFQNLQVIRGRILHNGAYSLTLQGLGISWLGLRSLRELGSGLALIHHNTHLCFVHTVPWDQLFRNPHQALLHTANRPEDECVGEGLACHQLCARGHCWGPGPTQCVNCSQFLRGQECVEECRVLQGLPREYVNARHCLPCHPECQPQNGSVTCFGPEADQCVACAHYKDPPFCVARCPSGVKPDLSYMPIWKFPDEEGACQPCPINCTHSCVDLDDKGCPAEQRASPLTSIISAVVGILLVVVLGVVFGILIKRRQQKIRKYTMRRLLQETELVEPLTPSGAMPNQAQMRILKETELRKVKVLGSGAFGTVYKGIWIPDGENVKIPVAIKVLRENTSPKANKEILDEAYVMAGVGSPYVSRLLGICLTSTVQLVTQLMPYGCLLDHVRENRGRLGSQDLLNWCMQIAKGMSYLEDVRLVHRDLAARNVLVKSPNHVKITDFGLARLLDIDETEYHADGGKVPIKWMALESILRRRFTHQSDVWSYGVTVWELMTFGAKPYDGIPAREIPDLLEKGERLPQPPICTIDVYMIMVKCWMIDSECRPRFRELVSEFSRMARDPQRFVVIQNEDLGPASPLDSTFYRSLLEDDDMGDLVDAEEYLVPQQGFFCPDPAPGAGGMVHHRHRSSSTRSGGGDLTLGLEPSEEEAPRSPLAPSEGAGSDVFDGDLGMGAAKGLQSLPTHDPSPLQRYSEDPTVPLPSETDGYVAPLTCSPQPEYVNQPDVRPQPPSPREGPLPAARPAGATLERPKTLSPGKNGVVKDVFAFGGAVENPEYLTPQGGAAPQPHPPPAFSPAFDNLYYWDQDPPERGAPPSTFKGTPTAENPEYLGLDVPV

Take `CN(C)/C(=N\C#N)NCC#Cc1ccc2ncnc(Nc3ccc(OCc4cccc(F)c4)c(Cl)c3)c2c1` [Example 1, N-(3-{4-[3-Chloro-4-(3-fluoro-benzyloxy)-phenylamino]-quinazolin-6-yl}-prop-2-ynyl)-N′-cyano-N″,N″-dimethylguanidine]: it took 0.085 µM to reach half-maximal inhibition (IC50).
The compound `N#C/N=C(/NCC#Cc1ccc2ncnc(Nc3ccc(OCc4cccc(F)c4)c(Cl)c3)c2c1)NCCO` [Example 2, N-(3-{4-[3-Chloro-4-(3-fluoro-benzyloxy)-phenylamino]-quinazolin-6-yl}-prop-2-ynyl)-N′-cyano-N″-3-(2-hydroxy-ethyl)guanidine] came in with an IC50 of 0.41 µM.
Compound `Cc1ccc(Oc2ccc(Nc3ncnc4ccc(C#CCN/C(N)=N/C#N)cc34)cc2C)cn1` [Example 3, N-cyano-N′-(3-{4-[3-Methyl-4-(6-methyl-pyridin-3-yloxy)-phenylamino]-quinazolin-6-yl}-prop-2-ynyl)guanidine] registered an IC50 of 0.008 µM.
`N#C/N=C(\NCc1ccc(-c2ccc3ncnc(Nc4ccc(OCc5cccc(F)c5)c(Cl)c4)c3c2)o1)N1CCOCC1` [Example 4, N-(5-{4-[3-Chloro-4-(3-fluoro-benzyloxy)-phenylamino]-quinazolin-6-yl}-furan-2-ylmethyl)-N′-cyano-morpholine-4-carboxamidine] displayed an IC50 of 0.013 µM. Compared with the last compound, the IC50 is about 1.6-fold higher.
As for `Cc1ccc(Oc2ccc(Nc3ncnc4ccc(-c5csc(CN/C(N)=N\C#N)n5)cc34)cc2C)cn1` [Example 5, N-cyano-N′-(4-{4-[3-Methyl-4-(6-methyl-pyridin-3-yloxy)-phenylamino]-quinazolin-6-yl}-thiazol-2-ylmethyl)guanidine], the IC50 worked out at 0.031 µM.
For `COc1cc2ncnc(Nc3ccc(OCc4ccccn4)c(Cl)c3)c2cc1OCCCN/C(=N\C#N)N(C)CCN(C)C` [Example 6, N-(3-{4-[3-Chloro-4-(pyridin-2-ylmethoxy)-phenylamino]-7-methoxy-quinazolin-6-yloxy}-propyl)-N′-cyano-N″-(2-dimethylamino-ethyl)-N″-methylguanidine], half-maximal inhibition (IC50) was put at 0.014 µM.
With `COc1cc2ncnc(Nc3ccc(OCc4ccccn4)c(Cl)c3)c2cc1OCCCN/C(=N\C#N)N(C)C` [Example 7, N-(3-{4-[3-Chloro-4-(pyridin-2-ylmethoxy)-phenylamino]-7-methoxy-quinazolin-6-yloxy}-propyl)-N′-cyano-N″,N″-dimethylguanidine], inhibition was half-maximal at 0.033 µM (IC50).
`CN/C(=N/C#N)NCCCOc1cc2c(Nc3ccc(OCc4cccc(F)c4)c(Cl)c3)ncnc2cc1OC` [Example 8, N-(3-{4-[3-Chloro-4-(3-fluoro-benzyloxy)-phenylamino]-7-methoxy-quinazolin-6-yloxy}-propyl) -N′-cyano-N″-methylguanidine]: it took 0.04 µM to reach half-maximal inhibition (IC50).
`N#C/N=C(\NCC#Cc1ccc2ncnc(Nc3ccc4c(cnn4Cc4cccc(F)c4)c3)c2c1)N1CCOCC1` [Example 9, N-cyano-N′-(3-{4-[1-(3-Fluoro-benzyl)-1 H-indazol-5-ylamino]-quinazolin-6-yl}-prop-2-ynyl)-morpholine-4-carboxamidine] displayed an IC50 of 0.012 µM.
As to `COCCN(C)/C(=N/C#N)NC/C=C/c1ccc2ncnc(Nc3ccc4c(cnn4Cc4cccc(F)c4)c3)c2c1` [Example 10, N-cyano-N′-(3-{4-[1-(3-Fluoro-benzyl)-1H-indazol-5-ylamino]-quinazolin-6-yl}-allyl)-N″-(2-methoxy-ethyl)-N″-methylguanidine], the IC50 amounted to 0.017 µM.

The values are drawn from patent publication US7488823B2, “Cyanoguanidines and cyanoamidines as ErbB2 and EGFR inhibitors” (Array Biopharma, Inc., priority 2003, dated 2009).
